Consider one substance from patent US20150359854A1 (HUMAN MATRIX SCIENCES, LLC, priority 2012, published 2015).

“Also recorded” adds a separate entry of the source.

One assay relates to cdk-2. Briefly: Western blotting of cdk-2 phosphorylation. In kind it is cell-based, human. Conditions: 30-minute treatment, 10 nmol/L insulin. From the text:
At the end of all treatments, cells from quadruplicate cultures in each experimental group were lysed using NP40 cell lysis buffer (Invitrogen Corp.). Thirty micrograms of protein extracts from each sample was suspended in standard sample buffer, resolved on 4% to 12% gradient SDS-PAGE gels, transferred to nitrocellulose membranes, and subjected to Western blotting using antibodies.

The test system of assay [1] is human aortic SMCs (AoSMCs). The assay can be described thus: Immunocytochemistry and morphometry of elastic fibers in AoSMC cultures. In kind it is cell-based. Conditions: 24-hour treatment, 0.5 to 100 nmol/L insulin, confluent AoSMCs, 2% FBS. From the text:
Human aortic SMCs (AoSMCs) were propagated from small fragments of aortic media collected from autopsy. Guidelines for the protection of human subjects of the US Department of Health and Human Services and of the Declaration of Helsinki were followed in obtaining tissues for this investigation. Cells migrating from the cultured explants of aortic media were routinely passaged (up to three times) via trypsinization using 0.2% trypsin-0.02% EDTA, and were maintained in DMEM supplemented with 5% FBS and 1% antibiotic-antimycotic mix. The second and third passages of cells that migrated from the original explants of aortic media were routinely probed with antibodies recognizing the SMC-specific α-actin to monitor the preservation of the SMC phenotype. All cells were initially plated at 100,000 cells per dish for immediate confluency so they would begin extracellular matrix production. The cell cultures committed to particular experiments were then transferred to DMEM containing either 2% FBS or to serum-free medium before initiation of particular treatments.
At the end of treatments, confluent cultures of AoSMCs were fixed in cold 100% methanol at −20° C. for 30 minutes, and blocked with 1% normal goat serum for 1 hour. The cultures were then incubated for 1 hour with 10 μg/mL polyclonal antibodies to tropoelastin and/or with 10 μg/mL monoclonal antibody to SMC-specific α-actin. All cultures were then incubated for another hour with the respective fluorescein-conjugated secondary antibodies (fluorescein-conjugated goat anti-rabbit or anti-mouse). Nuclei were counterstained with red-fluorescent propidium iodide or blue-fluorescent DAPI. The cultures were then mounted in ethanol and examined using a microscope (Eclipse E1000; Nikon Instruments, Inc., Melville, N.Y.) attached to a cooled CCD camera (Retiga EX; QImaging Corp., Vancouver, BC, Canada) and a computer-generated morphometric analysis system (Image-Pro Plus software; Media Cybernetics, Inc., Bethesda, Md.). In each analyzed group, 50 low-power fields from three separate cultures were analyzed, and the areas occupied by immunodetectable elastic fibers were expressed as a percentage of the entire analyzed field.

Assay [2] deals with Insulin-Like Growth Factor-1 Receptor (IGFR-1R) (Homo sapiens, UniProt P08069). Conditions: cited from earlier work.
The test system of assay [3] is cultures derived from aortic adventitia, primarily fibroblasts. The assay can be described thus: Elastic fiber deposition in cultures derived from aortic adventitia. It is filed as cell-based, human.
The test system of a further assay is S-Gal/EBP. The assay can be described thus: Association of tropoelastin with S-Gal/EBP chaperone (Western blot, co-immunoprecipitation, double immunostaining). It is filed as cell-based, human. Conditions: 20 minutes, 10 nmol/L insulin. On the procedure:
Cultures fixed for 30 minutes in cold 100% methanol were then blocked with 1% glycine for 15 minutes, followed by 2% bovine serum albumin with 0.1% Triton X-100 for another hour at room temperature. They were finally exposed for 1 hour to the mixture of 5 μg/mL polyclonal anti-S-Gal/EBP and 5 μg/mL monoclonal anti-tropoelastin antibodies. All cultures were then incubated for another hour with the mixture of fluorescein-conjugated and rhodamine-conjugated secondary antibodies. Nuclei were counterstained with DAPI. At the end of all treatments, cells from quadruplicate cultures in each experimental group were lysed using NP40 cell lysis buffer (Invitrogen Corp.). Thirty micrograms of protein extracts from each sample was suspended in standard sample buffer, resolved on 4% to 12% gradient SDS-PAGE gels, transferred to nitrocellulose membranes, and subjected to Western blotting using antibodies. At the end of indicated treatments, the cultured cells were lysed as described, and 300 μL aliquots of cell extracts containing […] were incubated at 4° C. for 3 hours with the aliquots of protein G bound DYNABEADS® (Invitrogen Corp.) that were conjugated with either rabbit polyclonal anti-tropoelastin, goat polyclonal anti-Glut10, or rabbit polyclonal anti-S-Gal antibodies. The beads carrying the final immunoprecipitation products were then washed with PBS, resuspended in sample buffer, and boiled for 5 minutes. The released proteins were then resolved on SDS-PAGE gel and subjected to Western blotting using indicated antibodies.
Background: In western blotting, separated proteins are transferred to a membrane and probed.

The next assay concerns tropoelastin mRNA. The assay can be described thus: RT-PCR assay of tropoelastin mRNA. In kind it is cell-based, human. Conditions: 10 nmol/L insulin. As to the method: At the end of the treatments, total RNA was extracted from quadruplicate cultures in each experimental group using the RNEASY® (RNA isolation) Mini Kit. One microgram total RNA from each sample was added to one-step RT-PCR (One-Step RT-PCR Kit; Qiagen, Inc.). The reactions were set up in a total volume of 25 μL. The reverse transcription step was performed for elastin and 18S ribosomal RNA reactions at 50° C. for 30 minutes, followed by 15 minutes at 95° C. The elastin PCR reaction using sense primer 5′[…]-3′ (SEQ ID NO 1) and antisense primer 5′[…]3′ (SEQ ID NO 2). The products were analyzed using ethidium bromide staining and densitometry-based image analysis using an optical system (Gel Doc 1000; Bio-Rad Laboratories, Inc., Hercules, Calif.). The amount of tropoelastin mRNA was standardized relative to the amount of 18S ribosomal RNA and expressed as percentage of control values.

The test system of assay [4] is human aortic SMCs (AoSMCs). The assay can be described thus: Cell proliferation ([3H]-thymidine incorporation and Ki-67 immunodetection). Conditions: 48-hour AoSMC cultures, 0.5 to 100 nmol/L insulin. In kind it is cell-based. On the procedure:
Cells were plated in 35-mm culture dishes (100,000 cells per dish) containing DMEM supplemented with 5% FBS. The cultures were grown to 70% to 80% confluency and serum-starved overnight to synchronize the cell cycles. […] The total amount of [3H]-thymidine-labeled DNA in individual cultures was then assessed via scintillation counting. […] The cultures were counterstained with hematoxylin. In each experimental group, quadruplicate cultures were examined under 200× magnification. The percentage of positively stained cells was determined and averaged over the 30 fields examined.
For orientation: Uptake of a labelled nucleoside into DNA is a usual measure of proliferation.

insulin: the “phosphorylation of cdk-2 on tyrosine 160” value with cdk-2 is on record as “did not induce phosphorylation”. Besides, in assay [1], the “production of immunodetected elastic fibers” value is recorded as “dose-dependent increase; also recorded: induce new elastogenesis in a dose-dependent manner”. In addition, the “lower affinity of IGFR-1R for insulin compared to the insulin receptor” value in assay [2] is listed as 1000 ×. Further, in assay [3] (1 nmol/L insulin, primarily fibroblasts), the “deposition of new elastic fibers in aortic adventitia cultures” value was “stimulated deposition of new elastic fibers”. Moreover, the “deposition of immunodetected elastic fibers in aortic media and adventitia cultures” value in assay [3] (48-hour treatment with 10 nmol/L insulin) is “deposit multiple immunodetected elastic fibers”. Also, in the assay with S-Gal/EBP, the “S-Gal/EBP coimmunoprecipitated using anti-tropoelastin antibody vs untreated” value is listed as “significantly more”; the “basic levels of intracellular S-Gal/EBP or tropoelastin (Western blot)” value was “did not demonstrate any increase; also recorded: do not demonstrate any increase”; the “co-localization of tropoelastin and S-Gal/EBP (double immunostaining)” value is on record as “reveal co-localization”. Moreover, in the assay on tropoelastin mRNA, the “time of peak up-regulation of tropoelastin mRNA” value is 8 h. The “tropoelastin mRNA level” value with tropoelastin mRNA (in 4 hours (time course)) is “significant up-regulation”. In addition, in the assay with tropoelastin mRNA (8-hour treatment, serum-free), the “tropoelastin mRNA level” value is on record as “induced significant up-regulation”. In addition, the “basic proliferative rate ([3H]-thymidine incorporation, Ki-67)” value in assay [4] was “did not induce any up-regulation”.
